Experimental data as given in article PMC8222176 (Acta biomaterialia, 2021).

Experiments:
[1] = type: physicochemical; conditions: in water at room temperature; DPH dye
[2] = Hydrodynamic diameter of detergent self-assemblies by dynamic light scattering; type: physicochemical; conditions: 1.0 wt% detergent, water, room temperature, n = 4
[3] = Water-solubility of detergents; type: physicochemical; conditions: in water
LeuT = LeuT stability assay; type: biochemical, Aquifex aeolicus; conditions: detergent at CMC + 0.04 wt%, 13-day incubation, room temperature
MelBSt [4] = biological target: T1, MelBSt (Salmonella typhimurium, UniProt P30878); type: biochemical; conditions: MelBSt extracted with 1.0 wt% detergent
T1 sequence (P30878 whole entry): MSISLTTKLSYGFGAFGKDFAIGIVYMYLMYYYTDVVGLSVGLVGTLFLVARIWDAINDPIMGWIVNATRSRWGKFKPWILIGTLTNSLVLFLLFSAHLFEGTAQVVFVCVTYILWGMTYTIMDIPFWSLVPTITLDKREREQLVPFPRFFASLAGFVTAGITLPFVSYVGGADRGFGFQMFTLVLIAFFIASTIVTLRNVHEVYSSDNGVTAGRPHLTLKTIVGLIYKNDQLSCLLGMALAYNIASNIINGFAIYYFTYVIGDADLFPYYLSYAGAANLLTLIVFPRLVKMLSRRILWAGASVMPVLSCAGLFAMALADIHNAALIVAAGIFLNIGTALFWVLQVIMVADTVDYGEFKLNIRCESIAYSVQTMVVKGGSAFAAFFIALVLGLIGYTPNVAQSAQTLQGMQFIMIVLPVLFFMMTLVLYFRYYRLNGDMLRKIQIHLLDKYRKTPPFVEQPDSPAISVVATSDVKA

MelBEc [5] = biological target: T2, MelBEc (Escherichia coli, UniProt P02921); experiment: MelB Trp→D2G FRET assay; type: biochemical, E. coli; conditions: MelBEc extracted with 1.0 wt% detergent
T2 sequence (P02921 whole entry): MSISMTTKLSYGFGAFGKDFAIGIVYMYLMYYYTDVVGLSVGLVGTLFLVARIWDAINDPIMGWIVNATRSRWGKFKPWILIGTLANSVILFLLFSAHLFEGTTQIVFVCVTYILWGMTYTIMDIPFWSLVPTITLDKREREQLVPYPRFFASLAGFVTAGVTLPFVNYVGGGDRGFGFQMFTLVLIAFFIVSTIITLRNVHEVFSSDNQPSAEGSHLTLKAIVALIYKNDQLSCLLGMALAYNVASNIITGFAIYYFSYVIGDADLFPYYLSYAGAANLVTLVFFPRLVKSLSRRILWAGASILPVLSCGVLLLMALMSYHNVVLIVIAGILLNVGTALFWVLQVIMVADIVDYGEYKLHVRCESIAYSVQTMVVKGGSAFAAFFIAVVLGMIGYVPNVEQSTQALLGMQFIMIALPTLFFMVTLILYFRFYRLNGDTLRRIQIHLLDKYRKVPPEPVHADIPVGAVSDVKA

μ-opioid receptor (MOR) = μ-opioid receptor (MOR) (Mus musculus, UniProt P42866); experiment: MOR stability assay; type: biochemical; conditions: 0.1 wt% detergent, 3-day incubation at room temperature
μ-opioid receptor (MOR), sequence (P42866 whole entry): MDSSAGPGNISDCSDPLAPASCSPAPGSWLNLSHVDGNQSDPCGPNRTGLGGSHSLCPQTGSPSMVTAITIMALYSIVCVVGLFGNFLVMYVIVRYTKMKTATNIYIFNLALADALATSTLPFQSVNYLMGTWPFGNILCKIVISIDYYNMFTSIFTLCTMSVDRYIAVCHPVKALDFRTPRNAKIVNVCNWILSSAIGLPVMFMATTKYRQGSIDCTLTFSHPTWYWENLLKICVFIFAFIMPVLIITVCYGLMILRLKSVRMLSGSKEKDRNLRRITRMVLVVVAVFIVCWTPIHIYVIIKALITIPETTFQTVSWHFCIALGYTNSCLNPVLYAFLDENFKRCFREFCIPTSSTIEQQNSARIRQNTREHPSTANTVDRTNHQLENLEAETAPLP

MelBSt [6] = biological target: T1, MelBSt; conditions: 1.5 wt% detergent, further 90 min at 55 °C
MelBSt [7] = biological target: T1, MelBSt; conditions: read-out: Apparent Kd, in the presence of Na+; cited from earlier work
MelBEc [8] = biological target: T2, MelBEc; conditions: read-out: Apparent Kd, in the presence of Na+; cited from earlier work

| SMILES | CAC (critical aggregation concentration) [1] | Dh (hydrodynamic diameter of aggregates) [2] | Solubility (water-solubility) [3] | LeuT long-term stability ([3H]-Leu binding ability) (LeuT) | fluorescence response to D2G and melibiose (MelB function) (MelBSt [4]) | fluorescence response to D2G and melibiose (MelB function) (MelBEc [5]) | MOR long-term stability ([3H]-DPN binding ability) (μ-opioid receptor (MOR)) | soluble MelBSt after incubation (MelBSt [6]) | Kd (MelBSt [7]) | Kd (MelBEc [8]) |
| --- | --- | --- | --- | --- | --- | --- | --- | --- | --- | --- |
| CCCCCCCCCCCCO[C@@H]1O[C@H](CO)[C@@H](O[C@H]2O[C@H](CO)[C@@H](O)[C@H](O)[C@H]2O)[C@H](O)[C@H]1O [DDM, n-dodecyl-β-D-maltoside] | 170 µM | 6.8 ± 0.6 nm | ~10 wt% | steady decrease in the substrate binding ability over time | responsive to the successive addition of D^2G and melibiose | no response was observed | complete loss in ligand binding ability after a 1-day incubation | little DDM-solubilized MelBSt detectable | – | – |
| CN(C)c1cccc2c(S(=O)(=O)NCCS[C@@H]3O[C@H](CO)[C@H](O)[C@H](O)[C@H]3O)cccc12 [D^2G, 2′-(N-Dansyl)aminoalkyl-1-thio-β-D-galactopyranoside] | – | – | – | – | – | – | – | – | 10.3 µM | 3.1 µM |
| OC[C@H]1O[C@H](OCC2O[C@@H](O)[C@H](O)[C@@H](O)[C@@H]2O)[C@H](O)[C@@H](O)[C@H]1O (stereo partly drawn) [melibiose] | – | – | – | – | – | – | – | – | 1070 µM | 490 µM |
